Results as given in a melting point compilation (Tetko et al.).

SMILES | melting point [°C]
CC(C)CCNS(=O)(=O)c1ccc(N)cc1 | 119 to 121
NS(=O)(=O)c1cnc(Cl)s1 | 128 to 130
O=C(CCl)NC(=O)NC12CC3CC(CC(C3)C1)C2 | 169 to 171
Cc1sc(N)nc1-c1c[nH]c2ncccc12 | 240 to 242
O=C(O)c1ccnc(N2CCCCC2)n1 | 99 to 101
CC(C)n1nnc(C(=O)O)c1C(F)(F)F | 99 to 101
CNC(=O)c1ccc(C)c(N)c1 | 167 to 169
NC(=NO)c1cccc(OCc2cccnc2)c1 | 127 to 129
COc1ccc(C(N)Cc2ccc(F)cc2)cc1 (configuration not stated) | 47 to 49
N#Cc1ccc(S(N)(=O)=O)cc1C(F)(F)F | 195 to 197
COc1ccc2cc(N)ccc2n1 | 101 to 103
CCOC(=O)COc1ccc(C(N)=S)cc1 | 126 to 128
COc1cc(/C=C/C(=O)O)cc(Cl)c1OC(C)C | 113 to 115
O=C(O)C1COCCO1 (configuration not stated) | 59 to 61
COC(C)c1nc(C(=O)O)cs1 (configuration not stated) | 73 to 75
Clc1ccc(-c2noc(Cl)n2)cc1 | 59 to 61

SMILES | melting point [°C]
CCCCCC(=O)Nc1cc(OC)c(OC)cc1C(=O)O | 178 to 180
CS(=O)(=O)NC1CCCNC1 (configuration not stated) | 123 to 125
COC(=O)CCCCCNC(N)=S | 84 to 86
Oc1cccc(-n2cnnn2)c1 | 174 to 176
CC1NCCn2c(C(=O)NC3CC3)ccc21 (configuration not stated) | 128 to 130
O=C(CCl)Nc1ccc(SC(F)F)cc1 | 55 to 57
CNC(=O)Cn1nc(N)cc1C | 115 to 117
Clc1ccc2ccc(Cl)c(Cl)c2n1 | 123 to 125
CN(C)S(=O)(=O)c1cc(Br)cnc1N | 173 to 175
Brc1ccc(-c2nccs2)cc1 | 45 to 47
O=Cc1ccc(-c2ccc(Cl)cc2[N+](=O)[O-])o1 | 92 to 94
CC1CCN(C(N)=S)CC1 | 103 to 105
O=C(NCc1ccc(Cl)cc1)n1ccnc1 | 94 to 96
CC1CCN(S(=O)(=O)c2ccc(C(=O)O)cc2)CC1 | 180 to 182
Cc1cnc(N)nc1 | 194 to 196

The next lines start with the values.

melting point [°C] | SMILES
73 to 75 | CN1CCC(O)(Cc2ccccc2Cl)CC1
239 to 241 | O=C1CCc2cc(O)ccc2N1
169 to 171 | O=c1[nH]c2c(Br)cccc2c(=O)o1
306 to 308 | Cc1cc(=O)[nH]cc1C(=O)O
162 to 164 | O=C(O)c1cnn(-c2ccc(C(F)(F)F)cn2)c1C(F)(F)F
154 to 156 | Fc1ccc(F)c2c(Cl)ccnc12
194 to 196 | O=C(O)Cc1csc(NC(=O)c2cccs2)n1
240 to 242 | O=C1NC(=O)C(c2ccccc2)(C(F)(F)F)N1 (configuration not stated)
184 to 186 | O=C(O)c1csc(-c2ccccc2)c1
159 to 161 | O=C(O)c1ccc(I)cc1Cl
90 to 92 | O=C(O)CCCCc1ccc(Br)cc1
55 to 57 | O=S(=O)(Cl)c1ccc(OCC(F)(F)F)cc1
66 to 68 | COc1ccccc1-c1cccc(N)c1
202 to 204 | O=C(NC(Cc1ccccc1)C(=O)O)c1cccs1 (configuration not stated)
264 to 266 | O=c1[nH]c2ccc(NCc3ccc(Cl)cc3)cc2[nH]1
56 to 58 | Nc1ccccc1Cn1cccn1
56 to 58 | CC(C)(Cc1cccc(Cl)c1)C(=O)O
139 to 141 | Cn1cc(C=CC(=O)O)c2ccccc21
222 to 224 | O=S1(=O)NC=Nc2ccccc21
187 to 189 | CC(C)=CC(=O)NCc1ccc(C(=O)O)cc1
178 to 180 | O=C(O)CSc1csc(-c2ccc(Br)cc2)n1
153 to 155 | Cc1ccccc1-c1nn[nH]n1
274 to 276 | O=C(O)c1cc(NCc2ccccc2)ccn1
59 to 61 | O=Cc1ccc(Oc2cccc([N+](=O)[O-])c2)cc1
109 to 111 | Oc1cccc(Oc2cccnc2)c1
349 to 351 | Cn1cc2c(=O)[nH][nH]c(=O)c2c1-c1ccc(N)cc1
